Measurements taken from ChEMBL document CHEMBL1150587, “Evaluation of the potential cancer chemotherapeutic efficacy of natural product isolates employing in vivo hollow fiber tests” (J Nat Prod, 2002).
Active and inactive are the calls of the source. The calls are words filed in the database; no cut-off is given here.

Legend:
[1] = system: Mus musculus; assay: Toxicity in tumor cell implanted NCr nu/nu mouse assessed as body weight change at 7.13 umol/kg, ip administered from day 3 to 6 after implantation measured on day 7; assay type: organism-based; conditions: in vivo
[2] = system: Mus musculus; assay: Toxicity in tumor cell implanted NCr nu/nu mouse assessed as body weight change at 14.3 umol/kg, ip administered from day 3 to 6 after implantation measured on day 7; assay type: organism-based; conditions: in vivo
[3] = system: Mus musculus; assay: Toxicity in tumor cell implanted NCr nu/nu mouse assessed as body weight change at 28.5 umol/kg, ip administered from day 3 to 6 after implantation measured on day 7; assay type: organism-based; conditions: in vivo
[4] = system: Mus musculus; assay: Toxicity in NCr nu/nu mouse subcutaneously implanted with human KB cells assessed as mortality at 7.13 umol/kg, ip administered on day 10, 13, 16, 20 of implantation; assay type: organism-based; conditions: in vivo
[5] = system: Lu1; assay: Growth inhibition of human Lu1 cells implanted intraperitoneally to NCr nu/nu mouse at 7.13 to 28.5 umol/kg, ip administered from day 3 to 6 after implantation measured on day 7 by MTT-based hollow-fiber test; assay type: functional
[6] = system: SW626; assay: Growth inhibition of human SW626 cells implanted intraperitoneally to NCr nu/nu mouse at 7.13 to 28.5 umol/kg, ip administered from day 3 to 6 after implantation measured on day 7 by MTT-based hollow-fiber test; assay type: functional
[7] = system: LNCaP; assay: Growth inhibition of human LNCAP cells implanted intraperitoneally to NCr nu/nu mouse at 7.13 to 28.5 umol/kg, ip administered from day 3 to 6 after implantation measured on day 7 by MTT-based hollow-fiber test; assay type: functional
[8] = system: SK-MEL-2; assay: Growth inhibition of human SK-MEL-2 cells implanted intraperitoneally to NCr nu/nu mouse at 7.13 to 28.5 umol/kg, ip administered from day 3 to 6 after implantation measured on day 7 by MTT-based hollow-fiber test; assay type: functional
[9] = system: KB; assay: Growth inhibition of human KB cells implanted intraperitoneally to NCr nu/nu mouse at 7.13 to 28.5 umol/kg, ip administered from day 3 to 6 after implantation measured on day 7 by MTT-based hollow-fiber test; assay type: functional
[10] = system: MCF7; assay: Growth inhibition of human MCF7 cells implanted intraperitoneally to NCr nu/nu mouse at 7.13 to 28.5 umol/kg, ip administered from day 3 to 6 after implantation measured on day 7 by MTT-based hollow-fiber test; assay type: functional
[11] = system: P388; assay: Growth inhibition of mouse P388 cells implanted intraperitoneally to NCr nu/nu mouse at 7.13 to 28.5 umol/kg, ip administered from day 3 to 6 after implantation measured on day 7 by MTT-based hollow-fiber test; assay type: functional
[12] = system: Lu1; assay: Growth inhibition of human Lu1 cells implanted subcutaneously to NCr nu/nu mouse at 7.13 to 28.5 umol/kg, ip administered from day 3 to 6 after implantation measured on day 7 by MTT-based hollow-fiber test; assay type: functional
[13] = system: SW626; assay: Growth inhibition of human SW626 cells implanted subcutaneously to NCr nu/nu mouse at 7.13 to 28.5 umol/kg, ip administered from day 3 to 6 after implantation measured on day 7 by MTT-based hollow-fiber test; assay type: functional
[14] = system: LNCaP; assay: Growth inhibition of human LNCAP cells implanted subcutaneously to NCr nu/nu mouse at 7.13 to 28.5 umol/kg, ip administered from day 3 to 6 after implantation measured on day 7 by MTT-based hollow-fiber test; assay type: functional
[15] = system: SK-MEL-2; assay: Growth inhibition of human SK-MEL-2 cells implanted subcutaneously to NCr nu/nu mouse at 7.13 to 28.5 umol/kg, ip administered from day 3 to 6 after implantation measured on day 7 by MTT-based hollow-fiber test; assay type: functional
[16] = system: KB; assay: Growth inhibition of human KB cells implanted subcutaneously to NCr nu/nu mouse at 7.13 to 28.5 umol/kg, ip administered from day 3 to 6 after implantation measured on day 7 by MTT-based hollow-fiber test; assay type: functional
[17] = system: MCF7; assay: Growth inhibition of human MCF7 cells implanted subcutaneously to NCr nu/nu mouse at 7.13 to 28.5 umol/kg, ip administered from day 3 to 6 after implantation measured on day 7 by MTT-based hollow-fiber test; assay type: functional
[18] = system: P388; assay: Growth inhibition of mouse P388 cells implanted subcutaneously to NCr nu/nu mouse at 7.13 to 28.5 umol/kg, ip administered from day 3 to 6 after implantation measured on day 7 by MTT-based hollow-fiber test; assay type: functional
[19] = system: Mus musculus; assay: Toxicity in NCr nu/nu mouse subcutaneously implanted with human KB cells assessed as mortality at 14.3 umol/kg, ip administered on day 10, 13, 16, 20 of implantation; assay type: organism-based; conditions: in vivo
[20] = system: Mus musculus; assay: Toxicity in NCr nu/nu mouse subcutaneously implanted with human KB cells assessed as mortality at 28.5 umol/kg, ip administered on day 10, 13, 16, 20 of implantation; assay type: organism-based; conditions: in vivo
[21] = system: Mus musculus; assay: Toxicity in NCr nu/nu mouse subcutaneously implanted with human KB cells assessed as change in body weight at 7.13 umol/kg, ip administered on day 10, 13, 16, 20 of implantation; assay type: organism-based; conditions: in vivo
[22] = system: Mus musculus; assay: Toxicity in NCr nu/nu mouse subcutaneously implanted with human KB cells assessed as change in body weight at 14.3 umol/kg, ip administered on day 10, 13, 16, 20 of implantation; assay type: organism-based; conditions: in vivo
[23] = system: Mus musculus; assay: Toxicity in NCr nu/nu mouse subcutaneously implanted with human KB cells assessed as change in body weight at 28.5 umol/kg, ip administered on day 10, 13, 16, 20 of implantation; assay type: organism-based; conditions: in vivo
[24] = system: KB; assay: Growth inhibition of human KB cells implanted subcutaneously to NCr nu/nu mouse assessed as tumor size at 7.13 to 72.6 umol/kg, ip administered on day 10, 13, 16, 20 of implantation; assay type: functional, organism-based
[25] = system: Mus musculus; assay: Toxicity in tumor-implanted NCr nu/nu mouse at 57.5 umol/kg, ip administered from day 3 to 6 after implantation measured on day 7 by hollow-fiber test; assay type: organism-based; conditions: in vivo
[26] = system: Mus musculus; assay: Toxicity in tumor-implanted NCr nu/nu mouse at 144 umol/kg, ip administered from day 3 to 6 after implantation measured on day 7 by hollow-fiber test; assay type: organism-based; conditions: in vivo
[27] = system: Lu1; assay: Growth inhibition of ip dosed intraperitoneally implanted human Lu1 cells to NCr nu/nu mouse administered from day 3 to 6 after implantation measured on day 7 by MTT-based hollow-fiber test; assay type: functional, organism-based
[28] = system: LNCaP; assay: Growth inhibition of ip dosed intraperitoneally implanted human LNCAP cells to NCr nu/nu mouse administered from day 3 to 6 after implantation measured on day 7 by MTT-based hollow-fiber test; assay type: functional, organism-based
[29] = system: SK-MEL-2; assay: Cytotoxicity against human SK-MEL-2 cells after 72 hrs by SRB assay; assay type: functional, cell-based; conditions: SK-MEL-2, 72 h
[30] = system: P388; assay: Cytotoxicity against mouse P388 cells after 72 hrs by SRB assay; assay type: functional, cell-based; conditions: P388, 72 h
[31] = system: MCF7; assay: Cytotoxicity against human MCF7 cells after 72 hrs by SRB assay; conditions: MCF7, 72 h
[32] = system: LNCaP; assay: Cytotoxicity against human LNCAP cells after 72 hrs by SRB assay; assay type: functional, cell-based
[33] = system: Lu1; assay: Cytotoxicity against human Lu1 cells after 72 hrs by SRB assay; assay type: functional, cell-based; conditions: Lu1, 72 h
[34] = Cytotoxicity against human KBV1 cells after 72 hrs by SRB assay; assay type: functional, cell-based; conditions: KB-V1, 72 h
[35] = system: KB; assay: Cytotoxicity against human KB cells after 72 hrs by SRB assay; assay type: functional, cell-based
[36] = system: Col2; assay: Cytotoxicity against human Col2 cells after 72 hrs by SRB assay; assay type: functional, cell-based; conditions: Col2, 72 h
[37] = Cytotoxicity against human BC1 cells after 72 hrs by SRB assay; conditions: BC1, 72 h
[38] = system: SW626; assay: Cytotoxicity against human SW626 cells after 72 hrs by SRB assay; assay type: functional, cell-based; conditions: SW626, 72 h

SMILES: C[C@@H]1CC[C@@]2(OC1)O[C@H]1C[C@H]3[C@@H]4CC=C5C[C@@H](O[C@@H]6O[C@H](CO)[C@@H](O[C@@H]7O[C@@H](C)[C@H](O)[C@@H](O)[C@H]7O)[C@H](O)[C@H]6O[C@@H]6O[C@@H](C)[C@H](O)[C@@H](O)[C@H]6O)CC[C@]5(C)[C@H]4CC[C@]3(C)[C@H]1[C@@H]2C [DIOSCIN]
- Activity [1]: 0.8 g
- Activity [2]: 0.45 g
- Activity [3]: -0.65 g
- Activity [4]: Non-toxic
- inhibition (INH) [5]: 24.6%
- inhibition (INH) [6]: 4.1%
- inhibition (INH) [7]: 36.9%
- inhibition (INH) [8]: 2.3%
- inhibition (INH) [9]: 79%
- inhibition (INH) [10]: 0%
- inhibition (INH) [11]: 0%
- inhibition (INH) [12]: 0%
- inhibition (INH) [13]: 8.7%
- inhibition (INH) [14]: 35.9%
- inhibition (INH) [15]: 0%
- inhibition (INH) [16]: 3.6%
- inhibition (INH) [17]: 7.3%
- inhibition (INH) [18]: 0%
- Activity [19]: Non-toxic
- Activity [20]: Non-toxic
- Activity [21]: 7.1%
- Activity [22]: 8.4%
- Activity [23]: 8.6%
- Activity [24]: inactive
- Activity [25]: Toxic
- Activity [26]: Toxic
- Activity [27]: Dose-dependent effect
- Activity [28]: Dose-dependent effect
- IC50 [29]: 1.8 µM
- IC50 [30]: 21.9 µM
- IC50 [31]: 22.4 µM
- IC50 [32]: 1.7 µM
- IC50 [33]: 1.2 µM
- IC50 [34]: > 23 µM
- IC50 [35]: 20.7 µM
- IC50 [36]: 2.8 µM
- IC50 [37]: 3.8 µM
- IC50 [38]: 3.1 µM
